Data taken from ChEMBL document CHEMBL4507281, “Data for DCP probe BI-4394” (2021).

Key:
Conditions in all cases: Compound concentration 10.0 uM
[1] = biological target: Muscarinic acetylcholine receptor M2 (Homo sapiens) (UniProt P08172)
[2] = biological target: Epidermal growth factor receptor (Homo sapiens) (UniProt P00533)
[3] = biological target: AMP-activated protein kinase (AMPK) alpha-1/beta-1/gamma-1 (Homo sapiens) (UniProt P54619+Q9Y478+Q13131)
[4] = biological target: Sodium-dependent dopamine transporter (Homo sapiens) (UniProt Q01959)
[5] = biological target: T1, Protein kinase C epsilon type (Homo sapiens) (UniProt Q02156)
T1 sequence (whole entry): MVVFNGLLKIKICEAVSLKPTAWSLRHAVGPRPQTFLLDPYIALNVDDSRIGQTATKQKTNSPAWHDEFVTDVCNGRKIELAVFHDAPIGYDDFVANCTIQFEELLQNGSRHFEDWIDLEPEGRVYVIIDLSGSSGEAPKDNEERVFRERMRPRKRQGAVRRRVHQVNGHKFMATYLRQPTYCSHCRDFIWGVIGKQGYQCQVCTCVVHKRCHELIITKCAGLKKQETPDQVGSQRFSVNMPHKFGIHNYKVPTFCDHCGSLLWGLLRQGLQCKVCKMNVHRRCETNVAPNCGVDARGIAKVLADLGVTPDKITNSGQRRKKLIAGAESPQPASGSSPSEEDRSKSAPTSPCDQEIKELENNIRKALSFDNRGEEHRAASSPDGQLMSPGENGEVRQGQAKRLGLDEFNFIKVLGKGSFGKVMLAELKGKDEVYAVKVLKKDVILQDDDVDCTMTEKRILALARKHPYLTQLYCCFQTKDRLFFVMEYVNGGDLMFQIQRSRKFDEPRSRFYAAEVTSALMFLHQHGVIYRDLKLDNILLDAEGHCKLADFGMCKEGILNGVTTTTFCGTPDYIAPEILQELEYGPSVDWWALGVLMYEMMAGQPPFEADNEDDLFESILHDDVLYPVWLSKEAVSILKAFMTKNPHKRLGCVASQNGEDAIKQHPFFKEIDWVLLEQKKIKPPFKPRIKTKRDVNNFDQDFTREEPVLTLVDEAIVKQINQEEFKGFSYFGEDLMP

[6] = biological target: Ephrin type-A receptor 2 (Homo sapiens) (UniProt P29317)
[7] = biological target: MAP kinase-activated protein kinase 2 (Homo sapiens) (UniProt P49137)
Sequence of MAP kinase-activated protein kinase 2 (Homo sapiens) (P49137 whole entry, looked up): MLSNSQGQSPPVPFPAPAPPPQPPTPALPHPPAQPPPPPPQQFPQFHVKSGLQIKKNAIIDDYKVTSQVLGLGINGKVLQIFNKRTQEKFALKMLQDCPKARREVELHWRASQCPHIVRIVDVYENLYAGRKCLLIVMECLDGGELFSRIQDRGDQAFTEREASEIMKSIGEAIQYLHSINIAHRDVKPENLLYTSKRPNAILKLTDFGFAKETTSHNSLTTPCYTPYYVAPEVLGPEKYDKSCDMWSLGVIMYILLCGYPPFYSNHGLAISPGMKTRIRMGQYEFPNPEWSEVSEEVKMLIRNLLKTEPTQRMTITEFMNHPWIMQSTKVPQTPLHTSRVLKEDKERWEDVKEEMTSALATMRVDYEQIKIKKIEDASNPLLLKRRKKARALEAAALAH

[8] = biological target: Mitogen-activated protein kinase kinase kinase kinase 4 (Homo sapiens) (UniProt O95819)
[9] = biological target: Vascular endothelial growth factor receptor 2 (Homo sapiens) (UniProt P35968)
[10] = biological target: Receptor tyrosine-protein kinase erbB-2 (Homo sapiens) (UniProt P04626)
[11] = biological target: Cyclin-dependent kinase 1/cyclin B (Homo sapiens) (UniProt P06493+P14635+Q8WWL7+O95067)
[12] = biological target: Serine/threonine-protein kinase PLK1 (Homo sapiens) (UniProt P53350)
Sequence of Serine/threonine-protein kinase PLK1 (Homo sapiens) (P53350 whole entry): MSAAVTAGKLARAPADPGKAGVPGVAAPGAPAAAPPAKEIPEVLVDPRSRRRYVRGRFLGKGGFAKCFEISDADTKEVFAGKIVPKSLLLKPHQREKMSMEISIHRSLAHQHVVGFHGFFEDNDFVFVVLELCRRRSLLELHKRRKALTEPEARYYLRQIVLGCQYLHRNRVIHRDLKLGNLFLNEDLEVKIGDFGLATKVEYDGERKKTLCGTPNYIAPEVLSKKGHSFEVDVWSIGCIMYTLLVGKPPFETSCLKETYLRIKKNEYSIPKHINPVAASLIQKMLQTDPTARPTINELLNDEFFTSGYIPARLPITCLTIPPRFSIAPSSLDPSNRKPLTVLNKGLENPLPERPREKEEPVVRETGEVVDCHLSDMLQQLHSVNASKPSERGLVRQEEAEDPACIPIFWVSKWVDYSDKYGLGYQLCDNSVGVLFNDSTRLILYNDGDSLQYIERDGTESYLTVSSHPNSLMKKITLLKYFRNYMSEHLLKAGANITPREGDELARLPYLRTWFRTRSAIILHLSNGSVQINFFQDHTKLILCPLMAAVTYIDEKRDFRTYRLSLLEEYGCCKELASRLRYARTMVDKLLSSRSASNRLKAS

[13] = biological target: Mitogen-activated protein kinase kinase kinase 9 (Homo sapiens) (UniProt P80192)
Sequence of Mitogen-activated protein kinase kinase kinase 9 (Homo sapiens) (P80192 whole entry, looked up): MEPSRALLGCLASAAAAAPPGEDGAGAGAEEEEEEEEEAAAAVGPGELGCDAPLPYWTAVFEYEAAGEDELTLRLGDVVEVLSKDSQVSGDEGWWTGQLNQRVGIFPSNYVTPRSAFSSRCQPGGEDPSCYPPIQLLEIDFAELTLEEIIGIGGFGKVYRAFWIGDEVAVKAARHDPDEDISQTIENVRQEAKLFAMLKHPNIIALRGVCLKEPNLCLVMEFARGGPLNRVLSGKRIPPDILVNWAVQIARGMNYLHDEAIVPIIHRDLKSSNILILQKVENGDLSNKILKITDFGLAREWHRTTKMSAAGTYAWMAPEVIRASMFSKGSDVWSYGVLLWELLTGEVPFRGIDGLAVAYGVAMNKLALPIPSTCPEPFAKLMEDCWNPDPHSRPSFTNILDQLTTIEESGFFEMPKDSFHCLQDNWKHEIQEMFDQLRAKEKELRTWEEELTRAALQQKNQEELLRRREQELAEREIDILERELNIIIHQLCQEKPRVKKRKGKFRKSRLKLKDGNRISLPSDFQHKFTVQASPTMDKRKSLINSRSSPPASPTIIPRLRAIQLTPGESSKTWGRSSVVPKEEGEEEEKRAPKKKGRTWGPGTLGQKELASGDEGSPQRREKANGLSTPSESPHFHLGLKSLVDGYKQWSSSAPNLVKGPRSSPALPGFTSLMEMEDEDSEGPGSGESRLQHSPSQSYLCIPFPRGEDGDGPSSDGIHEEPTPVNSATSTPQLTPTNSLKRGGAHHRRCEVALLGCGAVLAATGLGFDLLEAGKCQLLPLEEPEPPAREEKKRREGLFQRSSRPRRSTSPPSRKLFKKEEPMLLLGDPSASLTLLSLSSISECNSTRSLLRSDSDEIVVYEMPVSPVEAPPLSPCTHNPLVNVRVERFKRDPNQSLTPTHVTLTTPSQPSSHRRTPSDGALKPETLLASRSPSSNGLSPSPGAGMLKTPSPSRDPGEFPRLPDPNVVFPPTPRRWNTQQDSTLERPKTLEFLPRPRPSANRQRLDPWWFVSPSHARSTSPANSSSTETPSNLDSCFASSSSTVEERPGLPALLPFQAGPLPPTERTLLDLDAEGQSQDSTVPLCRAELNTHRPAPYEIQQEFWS

[14] = biological target: T2, Inhibitor of nuclear factor kappa-B kinase subunit beta (Homo sapiens) (UniProt O14920)
T2 sequence (whole entry): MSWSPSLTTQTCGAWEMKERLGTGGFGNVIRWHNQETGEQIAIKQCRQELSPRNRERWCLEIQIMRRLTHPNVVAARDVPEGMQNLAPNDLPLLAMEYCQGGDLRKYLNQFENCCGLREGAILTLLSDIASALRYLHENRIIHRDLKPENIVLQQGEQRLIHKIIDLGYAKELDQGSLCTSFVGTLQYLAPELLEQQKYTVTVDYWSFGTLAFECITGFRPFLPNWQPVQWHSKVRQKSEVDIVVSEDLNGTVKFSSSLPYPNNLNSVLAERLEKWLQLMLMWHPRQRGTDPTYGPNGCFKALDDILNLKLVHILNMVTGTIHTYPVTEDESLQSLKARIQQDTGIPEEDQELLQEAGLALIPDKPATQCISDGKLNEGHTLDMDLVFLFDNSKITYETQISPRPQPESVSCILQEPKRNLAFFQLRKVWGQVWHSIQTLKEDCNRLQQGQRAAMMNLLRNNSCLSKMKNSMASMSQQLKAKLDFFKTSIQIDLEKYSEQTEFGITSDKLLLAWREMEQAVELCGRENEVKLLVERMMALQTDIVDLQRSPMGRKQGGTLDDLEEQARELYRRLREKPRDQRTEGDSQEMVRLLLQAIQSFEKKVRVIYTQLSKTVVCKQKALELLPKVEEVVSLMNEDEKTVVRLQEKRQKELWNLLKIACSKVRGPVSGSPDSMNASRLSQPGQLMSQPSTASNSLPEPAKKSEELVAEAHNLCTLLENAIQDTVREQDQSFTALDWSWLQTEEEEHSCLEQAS

[15] = biological target: Tyrosine-protein kinase ABL1 (Homo sapiens) (UniProt P00519)

Sequence of Epidermal growth factor receptor (Homo sapiens) (P00533 whole entry): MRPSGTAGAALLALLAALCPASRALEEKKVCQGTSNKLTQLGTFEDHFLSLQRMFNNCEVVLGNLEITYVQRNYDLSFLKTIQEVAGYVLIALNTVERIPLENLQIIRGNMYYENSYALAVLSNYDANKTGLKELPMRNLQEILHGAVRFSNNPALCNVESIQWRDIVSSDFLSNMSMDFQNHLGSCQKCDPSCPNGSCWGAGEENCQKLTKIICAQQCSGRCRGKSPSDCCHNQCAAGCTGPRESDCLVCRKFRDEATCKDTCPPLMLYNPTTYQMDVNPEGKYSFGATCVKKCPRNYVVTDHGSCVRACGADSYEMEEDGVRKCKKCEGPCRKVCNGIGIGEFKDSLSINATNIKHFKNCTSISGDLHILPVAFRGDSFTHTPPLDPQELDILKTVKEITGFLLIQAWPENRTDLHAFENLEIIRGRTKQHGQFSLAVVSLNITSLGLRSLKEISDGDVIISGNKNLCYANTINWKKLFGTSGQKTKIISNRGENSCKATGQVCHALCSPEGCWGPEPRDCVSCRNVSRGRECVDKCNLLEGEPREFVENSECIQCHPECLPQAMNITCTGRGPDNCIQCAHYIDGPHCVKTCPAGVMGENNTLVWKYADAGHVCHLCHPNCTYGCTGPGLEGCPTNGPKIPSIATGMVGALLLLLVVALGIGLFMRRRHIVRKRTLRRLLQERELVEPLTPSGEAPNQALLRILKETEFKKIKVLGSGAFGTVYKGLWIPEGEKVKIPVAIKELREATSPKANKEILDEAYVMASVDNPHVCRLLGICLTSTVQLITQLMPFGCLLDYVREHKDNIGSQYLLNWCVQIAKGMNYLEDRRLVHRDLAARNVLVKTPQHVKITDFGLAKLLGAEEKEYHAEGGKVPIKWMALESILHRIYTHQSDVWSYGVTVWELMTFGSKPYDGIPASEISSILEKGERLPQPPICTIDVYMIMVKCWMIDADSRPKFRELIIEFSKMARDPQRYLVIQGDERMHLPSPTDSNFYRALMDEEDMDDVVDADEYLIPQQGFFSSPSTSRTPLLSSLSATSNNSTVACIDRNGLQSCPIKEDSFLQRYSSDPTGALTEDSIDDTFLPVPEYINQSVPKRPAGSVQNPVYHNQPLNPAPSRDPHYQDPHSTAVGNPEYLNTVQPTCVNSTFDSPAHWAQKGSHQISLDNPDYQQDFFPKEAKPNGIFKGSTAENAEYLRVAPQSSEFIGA
Sequence of AMP-activated protein kinase (AMPK) alpha-1/beta-1/gamma-1 (Homo sapiens) (P54619 whole entry): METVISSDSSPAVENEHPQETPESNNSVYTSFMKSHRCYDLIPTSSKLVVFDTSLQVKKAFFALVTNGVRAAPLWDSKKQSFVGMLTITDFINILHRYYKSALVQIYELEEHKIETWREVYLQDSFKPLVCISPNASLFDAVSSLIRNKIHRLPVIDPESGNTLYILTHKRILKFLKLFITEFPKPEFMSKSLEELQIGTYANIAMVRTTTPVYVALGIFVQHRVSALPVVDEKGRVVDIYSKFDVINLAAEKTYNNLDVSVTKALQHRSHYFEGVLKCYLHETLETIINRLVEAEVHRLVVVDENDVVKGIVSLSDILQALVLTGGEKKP
Sequence of AMP-activated protein kinase (AMPK) alpha-1/beta-1/gamma-1 (Homo sapiens) (Q13131 whole entry partner): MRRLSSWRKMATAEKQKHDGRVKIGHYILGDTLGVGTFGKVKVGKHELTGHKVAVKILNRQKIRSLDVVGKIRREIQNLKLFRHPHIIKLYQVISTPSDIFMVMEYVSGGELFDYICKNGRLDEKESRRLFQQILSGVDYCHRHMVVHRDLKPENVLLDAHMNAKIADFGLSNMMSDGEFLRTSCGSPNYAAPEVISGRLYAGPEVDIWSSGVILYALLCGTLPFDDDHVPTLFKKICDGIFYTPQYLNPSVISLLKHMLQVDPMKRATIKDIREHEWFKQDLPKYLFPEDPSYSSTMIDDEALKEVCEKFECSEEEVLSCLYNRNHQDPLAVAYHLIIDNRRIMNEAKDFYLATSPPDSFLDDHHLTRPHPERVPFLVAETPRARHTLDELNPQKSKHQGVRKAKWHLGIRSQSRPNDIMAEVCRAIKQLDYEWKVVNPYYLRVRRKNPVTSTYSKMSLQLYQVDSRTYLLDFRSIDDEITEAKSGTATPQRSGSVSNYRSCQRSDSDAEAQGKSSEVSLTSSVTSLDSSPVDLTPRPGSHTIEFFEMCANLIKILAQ
Sequence of AMP-activated protein kinase (AMPK) alpha-1/beta-1/gamma-1 (Homo sapiens) (Q9Y478 2-270 partner limits assumed): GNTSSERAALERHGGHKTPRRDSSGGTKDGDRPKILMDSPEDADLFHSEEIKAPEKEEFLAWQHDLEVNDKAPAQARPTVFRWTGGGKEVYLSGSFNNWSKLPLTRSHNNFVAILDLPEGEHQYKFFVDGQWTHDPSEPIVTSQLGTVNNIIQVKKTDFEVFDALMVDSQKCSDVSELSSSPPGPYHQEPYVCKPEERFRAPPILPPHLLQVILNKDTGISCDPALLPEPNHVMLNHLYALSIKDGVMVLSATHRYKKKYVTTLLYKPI
Sequence of Muscarinic acetylcholine receptor M2 (Homo sapiens) (P08172 whole entry): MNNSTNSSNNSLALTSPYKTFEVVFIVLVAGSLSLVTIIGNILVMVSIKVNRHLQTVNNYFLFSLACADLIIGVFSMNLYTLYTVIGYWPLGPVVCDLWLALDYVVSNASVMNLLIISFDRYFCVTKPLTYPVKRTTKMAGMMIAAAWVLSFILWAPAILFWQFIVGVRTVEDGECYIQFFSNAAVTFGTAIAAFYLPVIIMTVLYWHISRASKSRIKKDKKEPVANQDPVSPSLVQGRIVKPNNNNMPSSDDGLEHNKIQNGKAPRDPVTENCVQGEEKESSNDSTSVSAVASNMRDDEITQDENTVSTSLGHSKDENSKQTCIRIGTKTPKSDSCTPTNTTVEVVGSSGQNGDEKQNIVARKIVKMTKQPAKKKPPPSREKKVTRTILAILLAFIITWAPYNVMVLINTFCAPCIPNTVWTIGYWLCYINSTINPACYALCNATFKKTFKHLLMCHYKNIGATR

SMILES	inhibition [1]	residual activity [2]	residual activity [3]	inhibition [4]	residual activity [5]	residual activity [6]	residual activity [7]	residual activity [8]	residual activity [9]	residual activity [10]	residual activity [11]	residual activity [12]	residual activity [13]	residual activity [14]	residual activity [15]
Cn1nc(C(=O)NCc2ccc(C(=O)O)cc2)cc1-c1ccc2[nH]ccc2c1 [BI 4395]	-8.35%	–	–	–	–	–	–	–	–	–	–	–	–	–	–
CCOC(=O)c1cc2cc(-c3cc(C(=O)NCc4ccc(C(=O)O)cc4)nn3C)ccc2[nH]1 [BI 4394]	–	99%	8%	2.26%	115%	85%	1%	32%	17%	87%	88%	73%	93%	48%	48%
